Laboratory results taken from patent publication WO2005063245A1, “Composition for lowering blood pressure” (priority 2003, dated 2005).
Read-outs that look alike come from different tables or passages of the source.

Legend:
[1] = Non-Patent Document 4; cited from earlier work
[2] = Oral administration experiment with SHR rats (summary statement); assay type: in vivo, rat
[3] = Blood pressure lowering effect of samples (31)-(38) in SHR rats, same manner as Test example 6 (Table 11); assay type: in vivo, rat; settings: oral
[4] = Test example 6: test of blood pressure lowering effect using SHR rats, samples (16)-(30) (Table 9); assay type: in vivo, rat; settings: oral, mean ± SE, dose mg/kg: 17: 500, 18: 1.5, 19: 3.0, 20, 21, 24, 26, 27, 28, 30: 50, 22, 23: 20, 25, 29: 100
[5] = rats, intraperitoneal; Non-Patent Documents 5 and 6; cited from earlier work
[6] = n=5, 0 h (before administration), mean ± SE, dose mg/kg: 32, 33, 35, 36, 37: 20, 34: 23.4, 38: 32.4
[7] = n=5, 2 h after administration, mean ± SE, dose mg/kg: 32, 33, 35, 36, 37: 20, 34: 23.4, 38: 32.4
[8] = n=5, 4 h after administration, mean ± SE, dose mg/kg: 32, 33, 35, 36, 37: 20, 34: 23.4, 38: 32.4
[9] = n=5, column after 4 h, time not printed in this copy (line cut), dose mg/kg: 32, 33, 35, 36, 37: 20, 34: 23.4, 38: 32.4

Molecule	blood pressure during systole and diastole ([2]; SHR rats, oral administration)	systolic blood pressure [3, 6]	systolic blood pressure [3, 7]	systolic blood pressure [3, 8]	systolic blood pressure [3, 9]	effect on heart rate ([2]; SHR rats, oral administration)	further results
N=C(N)NCCC[C@H](N)C(=O)O [Sample 22, Arginine]	–	–	–	–	–	–	blood pressure lowering effect [1]: blood pressure lowering effect in systole and diastole; heart rate [1]: increase in heart rate
CC(C)C[C@H](N)C(=O)O [Sample 21, Leucine]	significantly reduce blood pressure during systole and diastole	189±1.7	162±1.0	162±2.7	174	–	effect on heart rate ([2]; rat, in vivo, po): without affecting the heart rate
N[C@@H](CCC(=O)O)C(=O)O [glutamic acid]	significantly reduce blood pressure during systole and diastole	–	–	–	–	without affecting the heart rate	–
bovine serum albumin [Sample 17]	–	–	–	–	–	–	systolic blood pressure ([4]; n=5, 0 h (before administration)): 186 + 2.2 mmH; systolic blood pressure ([4]; n=5, 2 h after administration): 169 + 1.8 mmH; systolic blood pressure ([4]; n=5, 4 h after administration): 170 ± 0.5 mmH
CC[C@H](C)[C@H](N)C(=O)O [Sample 20, Isoleucine]	significantly reduce blood pressure during systole and diastole	–	163±2.5	162+2.6	180	without affecting the heart rate	–
N[C@@H](Cc1c[nH]cn1)C(=O)O [Sample 23, Histidine]	significantly reduce blood pressure during systole and diastole	186+1.7	152+3.3	157±1.6	171	without affecting the heart rate	–
N[C@@H](Cc1ccc(O)cc1)C(=O)O [Sample 38, Tyrosine, reference compound]	–	189±1.7	161 ±1.8	159±1.1	169	–	blood pressure lowering effect [5]: blood pressure lowering effect
N[C@@H](CCC(=O)[O-])C(=O)[O-].[Na+].[Na+] [Sample 25, Sodium glutamate]	–	–	165±2.	–	177	–	–
N[C@@H](Cc1ccccc1)C(=O)O [Sample 37, phenylalanine]	significantly reduce blood pressure during systole and diastole	191±1.5	–	165±1.7	175	without affecting the heart rate	–
N[C@@H](Cc1c[nH]c2ccccc12)C(=O)O [L-tributophan]	–	–	–	–	–	–	blood pressure lowering effect [5]: blood pressure lowering effect
N[C@@H](CO)C(=O)O [Sample 36, Serine]	significantly reduce blood pressure during systole and diastole	–	164±1.4	158±3.7	172	–	effect on heart rate ([2]; rat, in vivo, po): without affecting the heart rate; systolic blood pressure ([3]; n=5, 0 h (before administration), mean ± SE, dose mg/kg: 32, 33, 35, 36, 37: 20, 34: 23.4, 38: 32.4, in mmHg): 190+2.0
